Laboratory results: PubChem BioAssay AID328 (DTP/NCI, 2004)
Values joined by “and” are separate entries in the source; they are usually repeats but may differ in a detail not shown here. Equal values may be shown once. Toxic doses and inconclusive results are not listed.

System: BDF1 mice, P388 leukemia ip, median survival T/C
Experiment: NCI In Vivo Anticancer Drug Screen. Data for tumor model P388 Leukemia (intraperitoneal) in B6D2F1 (BDF1) mice
Conditions: endpoint: median survival time, higher = longer survival
How it was run: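 Transplantable tumour in mice; compound vs vehicle dosing; survival scored; ratio of treated to control reported.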

[1] = dose: 100.0 mg/kg/injection, schedule: Q01DX009 (ip), vehicle: saline with Tween-80
[2] = dose: 200.0 mg/kg/injection, schedule: Q01DX009 (ip), vehicle: saline with Tween-80
[3] = dose: 12.5 mg/kg/injection, schedule: Q01DX009 (ip), vehicle: Klucel (hydroxypropylcellulose) (HPC)
[4] = dose: 25.0 mg/kg/injection, schedule: Q01DX009 (ip), vehicle: Klucel (hydroxypropylcellulose) (HPC)
[5] = dose: 50.0 mg/kg/injection, schedule: Q01DX009 (ip), vehicle: saline with Tween-80
[6] = dose: 25.0 mg/kg/injection, schedule: Q01DX009 (ip), vehicle: saline with Tween-80

CN(N=O)C(=O)NNC(=O)N(C)N=O
T/C (dose: 40.0 mg/kg/injection, schedule: Q04DX003 (ip), vehicle: saline with Tween-80): 105 % of control | T/C (dose: 60.0 mg/kg/injection, schedule: Q04DX003 (ip), vehicle: saline with Tween-80): 115 % of control | T/C (dose: 90.0 mg/kg/injection, schedule: Q04DX003 (ip), vehicle: saline with Tween-80): 105 % of control

CN1C(=O)C23CC4=CC=CC(O)C4N2C(=O)C1(CO)SS3 (configuration not stated)
T/C (dose: 0.19 mg/kg/injection, schedule: Q01DX009 (ip), vehicle: saline with Tween-80): 100 % of control | T/C (dose: 0.38 mg/kg/injection, schedule: Q01DX009 (ip), vehicle: saline with Tween-80): 100 % of control | T/C (dose: 0.75 mg/kg/injection, schedule: Q01DX009 (ip), vehicle: saline with Tween-80): 108 % of control and 109 % of control

O=C(Oc1ccccc1[N+](=O)[O-])c1ccccc1
T/C (dose: 25.0 mg/kg/injection, schedule: Q04DX003 (ip), vehicle: other): 100 % of control | T/C (dose: 75.0 mg/kg/injection, schedule: Q04DX003 (ip), vehicle: other): 100 % of control | T/C (dose: 150.0 mg/kg/injection, schedule: Q04DX003 (ip), vehicle: other): 95 % of control | T/C (dose: 400.0 mg/kg/injection, schedule: Q04DX003 (ip), vehicle: other): 90 % of control

Cc1cccc(C(=O)O)[n+]1[O-]
T/C [1]: 95 % of control | T/C [2]: 90 % of control | T/C (dose: 400.0 mg/kg/injection, schedule: Q01DX009 (ip), vehicle: saline with Tween-80): 90 % of control

CC(=O)CC(C)=O.CC(=O)CC(C)=O.Cc1c[nH]cn1.O=N[O-].[Co]
T/C (dose: 100.0 mg/kg/injection, schedule: Q04DX002 (ip), vehicle: saline with Tween-80): 107 % of control | T/C (dose: 200.0 mg/kg/injection, schedule: Q04DX002 (ip), vehicle: saline with Tween-80): 124 % of control

CCOC(CN(Cc1ccc(OC)c(OCc2ccccc2)c1)S(=O)(=O)c1ccc(C)cc1)OCC
T/C (dose: 25.0 mg/kg/injection, schedule: Q01DX009 (ip), vehicle: water): 89 % of control | T/C (dose: 50.0 mg/kg/injection, schedule: Q01DX009 (ip), vehicle: water): 99 % of control | T/C (dose: 100.0 mg/kg/injection, schedule: Q01DX009 (ip), vehicle: water): 92 % of control | T/C (dose: 200.0 mg/kg/injection, schedule: Q01DX009 (ip), vehicle: water): 112 % of control | T/C (dose: 400.0 mg/kg/injection, schedule: Q01DX009 (ip), vehicle: water): 99 % of control

CC1(C)N=C(N)N=C(N)N1c1ccc(CCc2ccccc2)c(Cl)c1
T/C (dose: 4.0 mg/kg/injection, schedule: Q01DX009 (ip), vehicle: saline with Tween-80): 122 % of control

C/C(=C\C1C/C(=C/CCc2ccoc2)C(=O)O1)CCCc1ccoc1 (configuration not stated)
T/C (dose: 5.0 mg/kg/injection, schedule: Q01DX009 (ip), vehicle: other): 107 % of control | T/C (dose: 20.0 mg/kg/injection, schedule: Q01DX009 (ip), vehicle: other): 106 % of control

CC(=O)NC(CCC(=O)C=[N+]=N)C(=O)O (configuration not stated)
T/C (dose: 0.05 mg/kg/injection, schedule: Q01DX010 (ip), vehicle: other): 115 % of control | T/C (dose: 0.1 mg/kg/injection, schedule: Q01DX010 (ip), vehicle: other): 110 % of control | T/C (dose: 0.2 mg/kg/injection, schedule: Q01DX010 (ip), vehicle: other): 120 % of control | T/C (dose: 0.6 mg/kg/injection, schedule: Q01DX010 (ip), vehicle: other): 154 % of control | T/C (dose: 0.8 mg/kg/injection, schedule: Q01DX010 (ip), vehicle: other): 168 % of control | T/C (dose: 1.0 mg/kg/injection, schedule: Q01DX010 (ip), vehicle: other): 100 % of control

COc1cc(C=C2C(=O)C=CC2=O)ccc1O
T/C (dose: 0.78 mg/kg/injection, schedule: Q01DX009 (ip), vehicle: saline with Tween-80): 116 % of control | T/C (dose: 1.56 mg/kg/injection, schedule: Q01DX009 (ip), vehicle: saline with Tween-80): 104 % of control | T/C (dose: 3.13 mg/kg/injection, schedule: Q01DX009 (ip), vehicle: saline with Tween-80): 112 % of control | T/C (dose: 6.25 mg/kg/injection, schedule: Q01DX009 (ip), vehicle: saline with Tween-80): 110 % of control | T/C (dose: 12.5 mg/kg/injection, schedule: Q01DX009 (ip), vehicle: saline with Tween-80): 95 % of control

CCOC(=O)C(C)(C)CCl
T/C (dose: 100.0 mg/kg/injection, schedule: Q04DX003 (ip), vehicle: Klucel (hydroxypropylcellulose) (HPC)): 90 % of control | T/C (dose: 200.0 mg/kg/injection, schedule: Q04DX003 (ip), vehicle: Klucel (hydroxypropylcellulose) (HPC)): 90 % of control | T/C (dose: 400.0 mg/kg/injection, schedule: Q04DX003 (ip), vehicle: Klucel (hydroxypropylcellulose) (HPC)): 100 % of control

O=C1c2ccccc2C(=O)N1CC[P+](c1ccccc1)(c1ccccc1)c1ccccc1
T/C (dose: 0.78 mg/kg/injection, schedule: Q01DX009 (ip), vehicle: water): 103 % of control | T/C (dose: 1.56 mg/kg/injection, schedule: Q04DX003 (ip), vehicle: water): 112 % of control | T/C (dose: 3.12 mg/kg/injection, schedule: Q04DX003 (ip), vehicle: water): 94 % of control and 123 % of control | T/C (dose: 3.13 mg/kg/injection, schedule: Q01DX009 (ip), vehicle: Klucel (hydroxypropylcellulose) (HPC)): 165 % of control | T/C (dose: 6.25 mg/kg/injection, schedule: Q01DX009 (ip), vehicle: Klucel (hydroxypropylcellulose) (HPC)): 151 % of control and 153 % of control | T/C (dose: 6.25 mg/kg/injection, schedule: Q01DX009 (ip), vehicle: water): 174 % of control | T/C (dose: 6.25 mg/kg/injection, schedule: Q04DX003 (ip), vehicle: water): 108 % of control and 120 % of control | T/C [3]: 157 % of control and 160 % of control | T/C (dose: 12.5 mg/kg/injection, schedule: Q01DX009 (ip), vehicle: water): 158 % of control | T/C (dose: 12.5 mg/kg/injection, schedule: Q04DX003 (ip), vehicle: water): 119 % of control and 120 % of control | T/C [4]: 90 % of control | T/C (dose: 50.0 mg/kg/injection, schedule: Q04DX003 (ip), vehicle: water): 120 % of control

CC(=O)c1c(C)[nH]c(C(=O)OC(C)(C)C)c1C
T/C (dose: 100.0 mg/kg/injection, schedule: Q01DX001 (ip), vehicle: Klucel (hydroxypropylcellulose) (HPC)): 113 % of control | T/C (dose: 200.0 mg/kg/injection, schedule: Q01DX001 (ip), vehicle: Klucel (hydroxypropylcellulose) (HPC)): 100 % of control | T/C (dose: 400.0 mg/kg/injection, schedule: Q01DX001 (ip), vehicle: Klucel (hydroxypropylcellulose) (HPC)): 109 % of control

Cc1c2ccnc(-c3ccccc3)c2cc2c1[nH]c1ccccc12
T/C [5]: 102 % of control | T/C [1]: 100 % of control | T/C [2]: 102 % of control

O=C(O)CC(SC(CC(=O)O)C(F)(F)C(F)(F)C(F)(F)F)C(F)(F)C(F)(F)C(F)(F)F (configuration not stated)
T/C [6]: 100 % of control | T/C [5]: 110 % of control | T/C [1]: 110 % of control

CC(=O)Nc1ccc([I+]c2ccc([N+](=O)[O-])cc2)cc1
T/C [3]: 99 % of control | T/C [4]: 101 % of control | T/C [6]: 119 % of control | T/C (dose: 75.0 mg/kg/injection, schedule: Q01DX009 (ip), vehicle: saline with Tween-80): 116 % of control | T/C (dose: 100.0 mg/kg/injection, schedule: Q01DX009 (ip), vehicle: Klucel (hydroxypropylcellulose) (HPC)): 118 % of control | T/C [1]: 115 % of control

CCOC(=O)C1Cc2ccccc2OC1=O (configuration not stated)
T/C (dose: 50.0 mg/kg/injection, schedule: Q01DX005 (ip), vehicle: saline with Tween-80): 105 % of control | T/C (dose: 100.0 mg/kg/injection, schedule: Q01DX005 (ip), vehicle: saline with Tween-80): 100 % of control | T/C (dose: 200.0 mg/kg/injection, schedule: Q01DX005 (ip), vehicle: saline with Tween-80): 91 % of control
